Assays:
HCT116 cell line = test: In vitro antiproliferative activity, MTT assay, HCT116; type: cell-based; conditions: Homo sapiens, HCT-116, 48 h
Description: (§1) HCT116, MCF-7 and B16 cell lines were plated on 96-well plates at a density of 5000 per well and incubated overnight. […] After 48 h, 0.5% MTT (Amresco, Solon, OH, USA) solution was added to each well, and further incubation for 4 h, then cells were centrifuged at 2500 rpm for 15 min and removed from the culture medium. And add 150 μL DMSO to dissolve the formazan. After mixing for 5 min, optical density was detected at 570 nm on a microplate reader (Thermo, Waltham, MA, USA).

MCF-7 cell line = test: In vitro antiproliferative activity, MTT assay, MCF-7; type: cell-based; conditions: Homo sapiens, MCF7, 48 h
Description: as §1

B16 cell line = test: In vitro antiproliferative activity, MTT assay, B16; type: cell-based; conditions: Mus musculus, 48 h
Description: as §1

B16 melanoma xenograft = test: In vivo antitumor activity, B16 melanoma xenograft model; conditions: 90 mg/kg for 14 days (text: orally; table footnote: i.p.), C57BL/6J mice
Description: (§2) Male C57BL/6J mice were employed to establish the xenograft tumor model by subcutaneous injection (S.C.) of 6 × 10^6 B16 cells. […] In the end of treatment, the mice were sacrificed and the tumor were peeled off and weighted. The inhibition rate of tumor growth was calculated. All animal protocols were conformed to the Guidelines for the Care and Use of Laboratory Animals approved by the Animal Care and Use Committee of Yantai University.

[1] = Body weight in B16 melanoma xenograft model; type: in vivo; conditions: B16 tumor-bearing C57BL/6J mice
Description: as §2

EGFR = EGFR (Homo sapiens, UniProt P00533); test: EGFR inhibitory assay (caliper mobility shift assay)
Description: (§3) Each of these compounds was dissolved in DMSO at 10 mM, diluted to 50× of the final desired highest inhibitor concentration in reaction by 100% DMSO, and 100 μL of each dilution was added to one well on 96-well storage plate, and diluted by transferring 10 μL to 90 μL of 100% DMSO in the next well. Besides, 100 μL of 100% DMSO was added to two empty wells for no compound control and no enzyme control in the same 96-well plate respectively. The plate was marked as source plate. 10 μL of each compound was transferred from the source plate to a new 96-well plate, which was marked as the intermediate plate. Next, 90 μL of 1× kinase base buffer was added to each well of the intermediate plate, and mixed by shaking vigorously for 10 min. A total of 5 μL of each well from the 96-well intermediate plate was transferred to a 384-well plate in duplicate.
(§4) Kinase reaction: kinase in 1× kinase base buffer, FAM-labeled peptide and ATP in the 1× kinase base buffer were added, then 10 μL of 2.5× enzyme solution was added to each well of the 384-well assay plate. After incubating at room temperature for 10 min, 10 μL of 2.5× peptide solution was added to each well of the 384-well assay plate. […] Finally, the kinase reactions were quenched with 25 μL of EDTA and the plates were washed. The dates were collected and converted with the caliper program.

VEGFR-2 = VEGFR-2 (Homo sapiens, UniProt P35968); test: VEGFR-2 inhibitory assay (caliper mobility shift assay)
Chain of VEGFR-2 (P35968 20-1356): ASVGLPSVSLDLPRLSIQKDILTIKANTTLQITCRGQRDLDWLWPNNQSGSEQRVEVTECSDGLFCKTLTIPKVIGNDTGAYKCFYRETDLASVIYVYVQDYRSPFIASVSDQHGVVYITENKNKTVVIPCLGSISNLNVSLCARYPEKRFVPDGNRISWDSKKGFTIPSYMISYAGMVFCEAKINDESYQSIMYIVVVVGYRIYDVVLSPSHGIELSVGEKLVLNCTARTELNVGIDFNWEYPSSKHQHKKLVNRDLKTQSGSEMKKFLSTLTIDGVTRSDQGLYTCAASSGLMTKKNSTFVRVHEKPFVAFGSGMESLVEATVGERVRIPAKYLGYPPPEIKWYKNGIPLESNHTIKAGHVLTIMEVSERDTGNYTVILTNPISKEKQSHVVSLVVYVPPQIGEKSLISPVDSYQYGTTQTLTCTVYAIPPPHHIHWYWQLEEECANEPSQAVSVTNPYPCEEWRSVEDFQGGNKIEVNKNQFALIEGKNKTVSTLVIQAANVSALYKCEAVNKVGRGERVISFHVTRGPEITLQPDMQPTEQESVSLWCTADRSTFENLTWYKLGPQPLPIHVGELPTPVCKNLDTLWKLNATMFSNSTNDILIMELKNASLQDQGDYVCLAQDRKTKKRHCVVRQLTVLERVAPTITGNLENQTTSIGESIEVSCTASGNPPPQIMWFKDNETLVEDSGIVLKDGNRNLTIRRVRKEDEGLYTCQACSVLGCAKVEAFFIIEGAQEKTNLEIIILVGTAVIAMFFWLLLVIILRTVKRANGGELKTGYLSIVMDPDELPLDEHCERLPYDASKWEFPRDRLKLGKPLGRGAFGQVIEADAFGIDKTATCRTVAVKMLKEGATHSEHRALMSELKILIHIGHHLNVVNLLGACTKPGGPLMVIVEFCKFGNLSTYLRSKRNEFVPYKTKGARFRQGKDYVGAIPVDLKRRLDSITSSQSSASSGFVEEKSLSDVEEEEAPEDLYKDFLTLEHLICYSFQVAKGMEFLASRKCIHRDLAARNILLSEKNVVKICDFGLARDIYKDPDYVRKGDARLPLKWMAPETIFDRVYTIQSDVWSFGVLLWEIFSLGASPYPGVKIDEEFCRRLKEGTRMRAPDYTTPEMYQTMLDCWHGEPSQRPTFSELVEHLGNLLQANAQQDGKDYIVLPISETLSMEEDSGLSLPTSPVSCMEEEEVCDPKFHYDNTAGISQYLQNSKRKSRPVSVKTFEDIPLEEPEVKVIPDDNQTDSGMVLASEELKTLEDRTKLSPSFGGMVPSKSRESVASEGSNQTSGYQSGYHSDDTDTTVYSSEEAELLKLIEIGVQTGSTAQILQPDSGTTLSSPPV
Description: as §3, §4

Chain of EGFR (P00533 25-1210): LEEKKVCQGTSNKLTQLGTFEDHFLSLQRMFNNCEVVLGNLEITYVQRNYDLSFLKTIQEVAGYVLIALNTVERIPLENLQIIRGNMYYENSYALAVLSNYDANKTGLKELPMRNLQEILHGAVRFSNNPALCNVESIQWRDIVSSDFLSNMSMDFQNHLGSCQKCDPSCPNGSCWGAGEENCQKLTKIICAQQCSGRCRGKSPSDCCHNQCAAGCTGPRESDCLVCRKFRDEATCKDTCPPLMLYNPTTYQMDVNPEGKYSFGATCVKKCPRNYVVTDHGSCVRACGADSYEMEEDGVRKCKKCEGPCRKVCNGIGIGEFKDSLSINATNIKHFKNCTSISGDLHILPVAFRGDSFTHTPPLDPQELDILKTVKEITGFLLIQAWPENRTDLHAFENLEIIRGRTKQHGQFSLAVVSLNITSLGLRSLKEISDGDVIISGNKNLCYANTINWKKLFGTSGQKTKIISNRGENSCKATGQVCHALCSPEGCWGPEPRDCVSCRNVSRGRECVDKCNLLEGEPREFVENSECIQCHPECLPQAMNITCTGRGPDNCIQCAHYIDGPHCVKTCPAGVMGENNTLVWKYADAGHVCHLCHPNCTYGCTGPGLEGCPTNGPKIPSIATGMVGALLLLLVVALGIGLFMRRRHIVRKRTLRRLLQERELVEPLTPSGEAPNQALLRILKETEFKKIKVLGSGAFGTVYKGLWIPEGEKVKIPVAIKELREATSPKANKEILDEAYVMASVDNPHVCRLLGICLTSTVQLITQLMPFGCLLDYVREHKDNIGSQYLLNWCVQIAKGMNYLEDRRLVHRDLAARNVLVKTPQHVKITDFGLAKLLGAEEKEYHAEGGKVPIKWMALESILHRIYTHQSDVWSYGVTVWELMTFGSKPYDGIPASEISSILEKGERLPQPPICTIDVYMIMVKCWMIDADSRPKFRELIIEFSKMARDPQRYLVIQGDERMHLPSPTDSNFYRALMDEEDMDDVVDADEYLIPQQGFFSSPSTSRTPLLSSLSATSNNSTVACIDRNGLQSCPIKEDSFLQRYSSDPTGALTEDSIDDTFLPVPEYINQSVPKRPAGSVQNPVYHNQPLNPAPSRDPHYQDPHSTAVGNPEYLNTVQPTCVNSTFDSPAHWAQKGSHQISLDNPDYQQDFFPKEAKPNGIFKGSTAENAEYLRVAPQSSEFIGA

IC50 (HCT116 cell line): 8.35 µM
IC50 (MCF-7 cell line): 15.7 µM
IC50 (B16 cell line): 5.57 µM
melting point: 150.3 to 152 °C
IC50 (EGFR): 0.01 µM
IC50 (VEGFR-2): 0.08 µM
Compound: COc1cc2ncnc(Sc3cccc(NC(=S)Nc4ccc(Br)c(C(F)(F)F)c4)c3)c2cc1OC [Compound 10q, 1-(4-Bromo-3-trifluoromethylphenyl)-3-[3-(6,7-dimethoxyquinazolin-4-ylsulfanyl)phenyl] thiourea]
Inhibition Rate of tumor growth (B16 melanoma xenograft): 64.06%
Tumor Weight (B16 melanoma xenograft): 0.46 ± 0.14 g
Body Weight End ([1]; 90 mg/kg for 14 days, end of treatment): 20.2 ± 2.7 g
Body Weight Initial ([1]; 90 mg/kg, before treatment): 19.1 ± 2.7 g
